What was measured:
[1] = Assessment of water-solubility; assay type: physicochemical; conditions: assessed similarly to Example 1
Procedure: The water solubility of a compound of formula (I-2) was assessed similarly to Example 1, to check that the compound is water soluble.

[2] = Photochromic property: absorption and fluorescence spectra in solution; assay type: physicochemical
Procedure: The spectrum of the open ring form is shown by dotted line 10. Irradiation with the UV light (313 nm) turned the solution purple, and a spectrum shown by solid line 20 was observed.
The water solubility of a compound of formula (I-2) was assessed similarly to Example 1, to check that the compound is water soluble. Specifically, the compound of (1-2) was dissolved in a small amount of methanol (0.2 mL), and distilled water (4 mL) was added to prepare a 95% aqueous solution, and an absorption spectrum of FIG. 2 (by Hitachi, using U-4100) was obtained as a result. The spectrum of the open ring form is shown by dotted line 10. Irradiation with a UV light (313 nm) turned the solution yellow, and a spectrum shown by solid line 20 was observed. In addition, the irradiation with the UV light made the compound fluorescent, and a spectrum of solid line 30 was obtained.
Curve 10 is a spectrum of the compound (open ring form) of formula (I-3), and the maximum absorption wave length was 254 nm. Then, an aqueous solution of the compound of formula (I-3) was irradiated with light of 254 nm to obtain a photostationary state (PSS), in which the ring closing reaction has ended. The spectrum at this state is shown as curve 20. The maximum absorption wavelength of the closed ring form was 595 nm.
About 0.5 mg of the given compound was dissolved in each of 0.5 mL of water/methanol (weight rate of 90/10) and 0.5 mL of only methanol to prepare a solution. For convenience, the former will be referred to as an aqueous solution, and the latter will be referred to as a methanol solution. Curve 10 is a spectrum of the compound of formula (I-4) (open ring form). In the methanol solution, the maximum absorption wavelength is 450 nm, and the molar absorption coefficient was 39000 M^−1 cm^−1. The absorption disappeared when irradiated with visible light, and the solution returned to a colorless state. Curve 20 is a spectrum of the closed ring form. […] Further, the fluorescence disappeared when the compound returned to the open ring form.
In the aqueous solution, the maximum absorption wavelength of the open ring form was 458 nm, and the molar absorption coefficient was 36000 M^−1 cm^−1. The absorption disappeared when irradiated with visible light, and the solution returned to a colorless state. […] Further, the fluorescence disappeared when the compound returned to the open ring form.

[3] = 95% aqueous solution, UV 313 nm

What does the source list for `CC1=C(C2=C(C3=C(C)S(=O)(=O)c4cc(CO[C@@H]5O[C@H](CO)[C@@H](O)[C@H](O)[C@H]5O)ccc43)C(F)(F)C(F)(F)C2(F)F)c2ccc(CO[C@@H]3O[C@H](CO)[C@@H](O)[C@H](O)[C@H]3O)cc2S1(=O)=O` [I-2]?
water solubility [1]: water soluble; colour of solution after irradiation with UV light [2, 3]: yellow; fluorescence after irradiation with UV light [2, 3]: fluorescent

Which water solubility [1] does the source give for `Cc1sc(C(=O)O[C@@H]2[C@H](O)[C@@H](O)[C@H](O)[C@@H](O)[C@@H]2O)cc1C1=C(c2cc(C(=O)O[C@@H]3[C@H](O)[C@@H](O)[C@H](O)[C@@H](O)[C@@H]3O)sc2C)C(F)(F)C(F)(F)C1(F)F` [I-3] here?
The water solubility was “water soluble”.

What about the “maximum absorption wave length, open ring form” value ([2]; aqueous solution) of the same compound?
The value was 254 nm.

And the “maximum absorption wavelength, closed ring form” value ([2]; aqueous solution, photostationary state after 254 nm light)?
The value was 595 nm.

What about the photochromism ([2]; aqueous solution, visible light longer than 600 nm) of the same compound?
Its photochromism is “reversible photochromism”.
